{"source": "paper PMC6853638", "about": "“TMC1 is an essential component of a leak channel that modulates tonotopy and excitability of auditory hair cells in mice” (eLife, 2019)", "key": {"[1]": {"target": "T1, TMC1-M412C (Mus musculus, UniProt Q8R4P5, M412C)", "T1 construct": "control full-length TMC1 (TMC1_WT); expressed in transfected cells; host or cells: Tmc1;Tmc2 double-knockout mouse OHCs (P1 + 3 DIV), injectoporation", "T1 sequence (Q8R4P5 whole entry M412C)": "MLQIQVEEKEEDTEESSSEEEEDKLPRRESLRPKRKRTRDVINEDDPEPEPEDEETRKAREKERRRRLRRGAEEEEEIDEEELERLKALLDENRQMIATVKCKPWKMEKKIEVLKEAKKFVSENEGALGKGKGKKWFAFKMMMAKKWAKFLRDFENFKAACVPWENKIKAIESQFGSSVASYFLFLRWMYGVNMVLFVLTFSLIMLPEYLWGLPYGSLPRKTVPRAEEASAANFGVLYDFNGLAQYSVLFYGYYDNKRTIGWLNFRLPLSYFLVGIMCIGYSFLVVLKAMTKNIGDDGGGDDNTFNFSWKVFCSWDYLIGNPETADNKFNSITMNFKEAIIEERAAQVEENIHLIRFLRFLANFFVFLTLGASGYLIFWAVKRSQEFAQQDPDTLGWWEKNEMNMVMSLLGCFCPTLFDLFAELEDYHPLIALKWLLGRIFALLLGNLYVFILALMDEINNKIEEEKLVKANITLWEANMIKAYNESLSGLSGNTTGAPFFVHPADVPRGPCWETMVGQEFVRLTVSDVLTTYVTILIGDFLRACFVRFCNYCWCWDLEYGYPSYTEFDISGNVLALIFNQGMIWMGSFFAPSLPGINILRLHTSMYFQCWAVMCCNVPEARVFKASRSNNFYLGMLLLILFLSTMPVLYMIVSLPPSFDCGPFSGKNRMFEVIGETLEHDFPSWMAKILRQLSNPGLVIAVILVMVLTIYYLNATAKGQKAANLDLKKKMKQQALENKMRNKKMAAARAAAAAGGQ", "T1 sequence (Q4KL25 whole entry partner)": "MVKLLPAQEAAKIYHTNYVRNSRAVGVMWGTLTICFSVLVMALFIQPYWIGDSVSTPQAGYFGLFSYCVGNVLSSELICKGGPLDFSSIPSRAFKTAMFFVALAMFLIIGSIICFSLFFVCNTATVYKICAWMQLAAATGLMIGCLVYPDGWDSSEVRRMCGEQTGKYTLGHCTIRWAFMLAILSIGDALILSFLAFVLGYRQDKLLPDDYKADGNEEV", "T1 sequence (Q8K467 29-153 partner)": "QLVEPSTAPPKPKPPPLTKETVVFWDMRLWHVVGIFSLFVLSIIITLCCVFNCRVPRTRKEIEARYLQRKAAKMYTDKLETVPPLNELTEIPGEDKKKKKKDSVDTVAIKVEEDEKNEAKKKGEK", "T1 sequence (Q9Z309 whole entry partner)": "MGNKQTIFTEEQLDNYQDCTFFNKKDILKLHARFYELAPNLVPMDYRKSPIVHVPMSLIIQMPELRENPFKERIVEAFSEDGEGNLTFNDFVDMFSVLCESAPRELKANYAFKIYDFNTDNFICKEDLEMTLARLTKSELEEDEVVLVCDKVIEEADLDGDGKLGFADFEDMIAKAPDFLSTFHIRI", "test": "MET current under MTSET treatment in Tmc1;Tmc2 double-knockout OHCs expressing TMC1-M412C", "assay_type": "cell-based"}, "[2]": {"target": "T2, cysteine-substituted TMC1 constructs (Mus musculus, UniProt Q8R4P5, G411C)", "T2 construct": "control full-length TMC1 (TMC1_WT); expressed in transfected cells; host or cells: Tmc1-knockout mouse OHCs, injectoporation", "T2 sequence (Q8R4P5 1-757 G411C)": "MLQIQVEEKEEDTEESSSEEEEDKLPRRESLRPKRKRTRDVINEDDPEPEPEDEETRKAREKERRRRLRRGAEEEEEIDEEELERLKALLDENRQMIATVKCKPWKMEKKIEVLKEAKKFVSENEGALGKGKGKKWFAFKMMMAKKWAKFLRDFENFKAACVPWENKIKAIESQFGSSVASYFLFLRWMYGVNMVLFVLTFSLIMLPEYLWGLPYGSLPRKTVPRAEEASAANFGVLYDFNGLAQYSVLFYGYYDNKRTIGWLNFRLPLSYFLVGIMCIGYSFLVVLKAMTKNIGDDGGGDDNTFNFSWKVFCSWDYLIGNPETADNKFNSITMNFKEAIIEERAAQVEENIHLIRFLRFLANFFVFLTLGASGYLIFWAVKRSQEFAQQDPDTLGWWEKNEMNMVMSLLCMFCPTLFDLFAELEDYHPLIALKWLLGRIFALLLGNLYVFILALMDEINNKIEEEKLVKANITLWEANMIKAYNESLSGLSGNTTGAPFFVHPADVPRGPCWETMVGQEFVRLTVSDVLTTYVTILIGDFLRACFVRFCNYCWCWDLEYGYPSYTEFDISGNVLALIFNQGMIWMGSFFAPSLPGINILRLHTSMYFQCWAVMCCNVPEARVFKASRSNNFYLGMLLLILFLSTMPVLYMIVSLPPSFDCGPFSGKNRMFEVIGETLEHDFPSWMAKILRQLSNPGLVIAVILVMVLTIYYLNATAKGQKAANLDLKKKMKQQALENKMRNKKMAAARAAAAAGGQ", "test": "Background current before and after MTSET treatment in Tmc1-knockout OHCs expressing cysteine-substituted TMC1", "assay_type": "cell-based", "settings": "Tmc1-knockout OHCs expressing TMC1-G411C, individual cells", "method": "(§1) Mouse Tmc1 and Tmc2 cDNAs were cloned into CMV-Script and pCDNA3.1- vectors, respectively. To obtain the Tmc1-deafness vector and amino-acid-substituted Tmc1 constructs, specific primers were designed and used for PCR (Supplementary File 1). […] In brief, the organ of Corti was isolated from P3 mice and cut into three pieces in Dulbecco’s modified Eagle’s medium/F12 with 1.5 μg/ml ampicillin. For electroporation, a glass pipette (2 μm tip diameter) was used to deliver cDNA plasmids (0.2 μg/μl in 1 × Hanks' balanced salt solution) to hair cells in the sensory epithelium. EGFP was used as an indicator for the selection of transfected hair cells. A series of three pulses at 60 V lasting 15 ms at 1 s intervals was applied to cochlear tissues by an electroporator (ECM Gemini X2, BTX, CA). The cochlear tissues were cultured for 1 day in vitro and then used for electrophysiological recording.\n(§2) All experiments were performed at room temperature (20–25°C). Briefly, the basilar membrane with hair cells was acutely dissected from neonatal mice. […] The acutely isolated or cultured basilar membrane was used for electrophysiological recording within 1 h. […] Hair cells were recorded with a patch-clamp amplifier (EPC 10 USB and Patchmaster software, HEKA Elektronik, Lambrecht/Pfalz, Germany).\n(§3) The sampling rate was 1 kHz for leak current recording, 50 kHz for the IV protocol and current-clamp recording, and 100 kHz for unitary channel recording. The voltage-clamp used a –70 mV holding potential, and the current-clamp was held at 0 pA. Only recordings with a current baseline <20 pA in NMDG solution were used for statistical analysis."}, "[3]": {"target": "T3, cysteine-substituted TMC1 constructs (Mus musculus, UniProt Q8R4P5, D569C)", "T3 construct": "control full-length TMC1 (TMC1_WT); expressed in transfected cells; host or cells: Tmc1-knockout mouse OHCs, injectoporation", "T3 sequence (Q8R4P5 1-757 D569C)": "T2 sequence (Q8R4P5 1-757 G411C) with C411G, D569C", "test": "Background current before and after MTSET treatment in Tmc1-knockout OHCs expressing cysteine-substituted TMC1", "assay_type": "cell-based", "settings": "Tmc1-knockout OHCs expressing TMC1-D569C, individual cells", "method": "as §1, §2, §3"}, "[4]": {"target": "T1, TMC1-M412C", "parameters": "method as in Pan et al., 2018", "settings": "MTSET treatment of M412C; ref Pan et al., 2018; cited from earlier work"}}, "note": "Positions count from the first letter of the chain named. “And” between values parts separate entries of the source, which are not always exact repeats. Equal entries are not always repeated."}
{"smiles": "C[N+](C)(C)CCSS(C)(=O)=O.[Br-]", "note": "[MTSET, 2-(trimethylammonium)ethyl methanethiosulfonate, bromide]", "values": [{"measurement": "effect on the MET current amplitude", "setting": "[1]", "result": "did change the MET current amplitude"}, {"measurement": "amplitude of the background current after MTSET treatment", "setting": "[2]", "result": "-17.5539 and -22.5978 and -20.1413 and -23.0553 and -21.6542"}, {"measurement": "amplitude of the background current after MTSET treatment", "setting": "[3]", "result": "-25.3123 and -14.3715 and -14.7309 and -35.792"}, {"measurement": "effect on the MET current", "setting": "[4]", "result": "reduced the MET current"}]}
